From ChEMBL document CHEMBL1201862, “PubChem BioAssay data set” (2004)
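Exposure lasted 48 hours, with cells grown in 96-well plates and compounds tested at five concentrations. Abbreviation: GI50, concentration required for 50% inhibition of growth.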 Activity calls are given as the source filed them. Cut-off read from the data, not from the text of the source: active = GI50 up to about 1.1 µM and inactive = higher.

Legend:
Experiment in all cases: NCI tumour cell line growth inhibition, 48 h
786-0 = test system: 786-0
A498 = test system: A498
A549 = test system: A549
ACHN = test system: ACHN
CCRF-CEM = test system: CCRF-CEM
COLO 205 = test system: COLO 205
DLD-1 = test system: DLD-1
DMS-114 = test system: DMS-114
EKVX = test system: EKVX
HCC 2998 = test system: HCC 2998
HCT-116 = test system: HCT-116
HCT-15 = test system: HCT-15
HL-60 = test system: HL-60
HOP-18 = test system: HOP-18
HOP-62 = test system: HOP-62
HOP-92 = test system: HOP-92
HT-29 = test system: HT-29
IGROV-1 = test system: IGROV-1
K562 = test system: K562
KM-20L2 = test system: KM-20L2
KM12 = test system: KM12
LXFL 529 = test system: LXFL 529
M14 = test system: M14
M19-MEL = test system: M19-MEL
MOLT-4 = test system: MOLT-4
Malme-3M = test system: Malme-3M
NCI-H23 = test system: NCI-H23
NCI-H460 = test system: NCI-H460
NCI-H522 = test system: NCI-H522
OVCAR-3 = test system: OVCAR-3
OVCAR-4 = test system: OVCAR-4
OVCAR-5 = test system: OVCAR-5
OVCAR-8 = test system: OVCAR-8
RPMI-8226 = test system: RPMI-8226
RXF 393 = test system: RXF 393
RXF 631 = test system: RXF 631
SF-268 = test system: SF-268
SF-295 = test system: SF-295
SF-539 = test system: SF-539
SK-MEL-28 = test system: SK-MEL-28
SK-MEL-2 = test system: SK-MEL-2
SK-MEL-5 = test system: SK-MEL-5
SN12C = test system: SN12C
SNB-19 = test system: SNB-19
SNB-78 = test system: SNB-78
SR = test system: SR
SW-620 = test system: SW-620
TK-10 = test system: TK-10
U-251 = test system: U-251
UACC-257 = test system: UACC-257
UACC-62 = test system: UACC-62
UO-31 = test system: UO-31
CAKI-1 = test system: CAKI-1
DMS-273 = test system: DMS-273
LOX IMVI = test system: LOX IMVI
NCI-H226 = test system: NCI-H226
SK-OV-3 = test system: SK-OV-3
SNB-75 = test system: SNB-75
XF498 = test system: XF498

In the case of `COCCCNC(=O)CC(=O)NCCCOC`, the GI50 (786-0) is reported as > 100 µM (inactive), the GI50 (A498) is reported as > 100 µM (inactive) and the GI50 (A549) is reported as > 100 µM (inactive). For the same molecule, the GI50 (ACHN) was > 100 µM (inactive), the GI50 (CCRF-CEM) was > 100 µM (inactive) and the GI50 (COLO 205) was > 100 µM (inactive). The GI50 (DLD-1) was > 100 µM (inactive), the GI50 (DMS-114) was > 100 µM (inactive) and the GI50 (EKVX) was > 100 µM (inactive). For the same molecule, the GI50 (HCC 2998) was > 100 µM (inactive), the GI50 (HCT-116) was > 100 µM (inactive) and the GI50 (HCT-15) was greater than 100 µM. For the same molecule, the GI50 (HL-60) was > 100 µM (inactive), the GI50 (HOP-18) was > 100 µM (inactive) and the GI50 (HOP-62) was > 100 µM (inactive). For the same molecule, the GI50 (HOP-92) was > 100 µM (inactive), the GI50 (HT-29) was > 100 µM (inactive) and the GI50 (IGROV-1) was > 100 µM (inactive). For the same molecule, the GI50 (K562) was > 100 µM (inactive), the GI50 (KM-20L2) was > 100 µM (inactive) and the GI50 (KM12) was > 100 µM (inactive). For the same molecule, the GI50 (LXFL 529) was > 100 µM (inactive), the GI50 (M14) was > 100 µM (inactive) and the GI50 (M19-MEL) was > 100 µM (inactive). For the same molecule, the GI50 (MOLT-4) was > 100 µM (inactive), the GI50 (Malme-3M) was > 100 µM (inactive) and the GI50 (NCI-H23) was > 100 µM (inactive). The GI50 (NCI-H460) was > 100 µM (inactive), the GI50 (NCI-H522) was > 100 µM (inactive) and the GI50 (OVCAR-3) was > 100 µM (inactive). The GI50 (OVCAR-4) was > 100 µM (inactive), the GI50 (OVCAR-5) was > 100 µM (inactive) and the GI50 (OVCAR-8) was > 100 µM (inactive). The GI50 (RPMI-8226) was > 100 µM (inactive), the GI50 (RXF 393) was > 100 µM (inactive) and the GI50 (RXF 631) was > 100 µM (inactive). The GI50 (SF-268) was > 100 µM (inactive), the GI50 (SF-295) was > 100 µM (inactive) and the GI50 (SF-539) was > 100 µM (inactive). The GI50 (SK-MEL-28) was > 100 µM (inactive), the GI50 (SK-MEL-2) was > 100 µM (inactive) and the GI50 (SK-MEL-5) was > 100 µM (inactive). The GI50 (SN12C) was > 100 µM (inactive), the GI50 (SNB-19) was > 100 µM (inactive) and the GI50 (SNB-78) was > 100 µM (inactive). For the same molecule, the GI50 (SR) was > 100 µM (inactive), the GI50 (SW-620) was > 100 µM (inactive) and the GI50 (TK-10) was > 100 µM (inactive). The GI50 (U-251) was > 100 µM (inactive), the GI50 (UACC-257) was > 100 µM (inactive) and the GI50 (UACC-62) was > 100 µM (inactive). The GI50 (UO-31) was > 100 µM (inactive).

For `C/C(CC(=O)Nc1ccc([N+](=O)[O-])cc1)=N\NC(N)=O`, the GI50 (786-0) was > 100 µM (inactive), the GI50 (A498) was > 100 µM (inactive) and the GI50 (A549) was > 100 µM (inactive). The GI50 (ACHN) was > 100 µM (inactive), the GI50 (CAKI-1) was > 100 µM (inactive) and the GI50 (CCRF-CEM) was > 44.6 µM (inactive). For the same molecule, the GI50 (COLO 205) was > 55.6 µM (inactive), the GI50 (DLD-1) was > 77.8 µM (inactive) and the GI50 (DMS-114) was > 45.8 µM (inactive). For the same molecule, the GI50 (DMS-273) was > 66.5 µM (inactive), the GI50 (EKVX) was > 100 µM (inactive) and the GI50 (HCC 2998) was > 100 µM (inactive). The GI50 (HCT-116) was > 57.8 µM (inactive), the GI50 (HCT-15) was 27 µM and the GI50 (HL-60) was > 100 µM (inactive). For the same molecule, the GI50 (HOP-18) was > 100 µM (inactive), the GI50 (HOP-62) was > 100 µM (inactive) and the GI50 (HOP-92) was > 100 µM (inactive). For the same molecule, the GI50 (HT-29) was > 100 µM (inactive), the GI50 (IGROV-1) was > 100 µM (inactive) and the GI50 (K562) was > 70.8 µM (inactive). For the same molecule, the GI50 (KM-20L2) was > 64.9 µM (inactive), the GI50 (KM12) was > 100 µM (inactive) and the GI50 (LOX IMVI) was > 64.7 µM (inactive). The GI50 (LXFL 529) was > 80.2 µM (inactive), the GI50 (M14) was > 76.6 µM (inactive) and the GI50 (M19-MEL) was > 100 µM (inactive). The GI50 (MOLT-4) was > 100 µM (inactive), the GI50 (Malme-3M) was > 100 µM (inactive) and the GI50 (NCI-H226) was > 100 µM (inactive). For the same molecule, the GI50 (NCI-H23) was > 100 µM (inactive), the GI50 (NCI-H460) was > 100 µM (inactive) and the GI50 (NCI-H522) was > 81.7 µM (inactive). For the same molecule, the GI50 (OVCAR-3) was > 100 µM (inactive), the GI50 (OVCAR-4) was > 100 µM (inactive) and the GI50 (OVCAR-5) was > 100 µM (inactive). For the same molecule, the GI50 (OVCAR-8) was > 44.4 µM (inactive), the GI50 (RPMI-8226) was > 46.1 µM (inactive) and the GI50 (RXF 393) was > 100 µM (inactive). The GI50 (SF-268) was 98.2 µM (inactive), the GI50 (SF-295) was > 100 µM (inactive) and the GI50 (SF-539) was > 100 µM (inactive). The GI50 (SK-MEL-28) was > 100 µM (inactive), the GI50 (SK-MEL-2) was > 100 µM (inactive) and the GI50 (SK-MEL-5) was > 68.7 µM (inactive). The GI50 (SK-OV-3) was > 100 µM (inactive), the GI50 (SN12C) was > 100 µM (inactive) and the GI50 (SNB-19) was > 100 µM (inactive). The GI50 (SNB-75) was > 100 µM (inactive), the GI50 (SNB-78) was > 100 µM (inactive) and the GI50 (SR) was 24.4 µM (inactive). The GI50 (SW-620) was > 100 µM (inactive), the GI50 (TK-10) was > 100 µM (inactive) and the GI50 (U-251) was > 100 µM (inactive). For the same molecule, the GI50 (UACC-257) was > 100 µM (inactive), the GI50 (UACC-62) was > 71.3 µM (inactive) and the GI50 (UO-31) was > 100 µM (inactive). For the same molecule, the GI50 (XF498) was > 100 µM (inactive).

With `Cc1ccccc1C1CC(c2ccccc2)=NO1` (stereo not given) the GI50 (786-0) was > 100 µM (inactive), the GI50 (A498) was > 100 µM (inactive) and the GI50 (A549) was > 100 µM (inactive). For the same molecule, the GI50 (ACHN) was > 100 µM (inactive), the GI50 (CAKI-1) was > 100 µM (inactive) and the GI50 (CCRF-CEM) was > 100 µM (inactive). The GI50 (COLO 205) was > 100 µM (inactive), the GI50 (DLD-1) was > 100 µM (inactive) and the GI50 (DMS-114) was > 100 µM (inactive). The GI50 (DMS-273) was > 100 µM (inactive), the GI50 (EKVX) was > 100 µM (inactive) and the GI50 (HCC 2998) was > 100 µM (inactive). The GI50 (HCT-116) was > 100 µM (inactive), the GI50 (HCT-15) was greater than 100 µM and the GI50 (HL-60) was > 100 µM (inactive). The GI50 (HOP-18) was > 100 µM (inactive), the GI50 (HOP-62) was > 100 µM (inactive) and the GI50 (HOP-92) was > 100 µM (inactive). The GI50 (HT-29) was > 100 µM (inactive), the GI50 (IGROV-1) was > 100 µM (inactive) and the GI50 (K562) was > 100 µM (inactive). For the same molecule, the GI50 (KM-20L2) was > 100 µM (inactive), the GI50 (KM12) was > 100 µM (inactive) and the GI50 (LXFL 529) was > 100 µM (inactive). The GI50 (M14) was > 100 µM (inactive), the GI50 (MOLT-4) was > 100 µM (inactive) and the GI50 (Malme-3M) was > 100 µM (inactive). The GI50 (NCI-H226) was > 100 µM (inactive), the GI50 (NCI-H23) was > 100 µM (inactive) and the GI50 (NCI-H460) was > 100 µM (inactive). The GI50 (NCI-H522) was > 100 µM (inactive), the GI50 (OVCAR-3) was > 100 µM (inactive) and the GI50 (OVCAR-4) was > 100 µM (inactive). The GI50 (OVCAR-5) was > 100 µM (inactive), the GI50 (OVCAR-8) was > 100 µM (inactive) and the GI50 (RPMI-8226) was > 100 µM (inactive). For the same molecule, the GI50 (RXF 631) was > 100 µM (inactive), the GI50 (SF-268) was > 100 µM (inactive) and the GI50 (SF-295) was > 100 µM (inactive). The GI50 (SF-539) was > 100 µM (inactive), the GI50 (SK-MEL-28) was > 100 µM (inactive) and the GI50 (SK-MEL-2) was > 100 µM (inactive). For the same molecule, the GI50 (SK-MEL-5) was > 100 µM (inactive), the GI50 (SK-OV-3) was > 100 µM (inactive) and the GI50 (SN12C) was > 100 µM (inactive). The GI50 (SNB-19) was > 100 µM (inactive), the GI50 (SNB-75) was > 100 µM (inactive) and the GI50 (SNB-78) was > 100 µM (inactive). The GI50 (SR) was > 100 µM (inactive), the GI50 (SW-620) was > 100 µM (inactive) and the GI50 (TK-10) was > 100 µM (inactive). The GI50 (U-251) was > 100 µM (inactive), the GI50 (UACC-257) was > 100 µM (inactive) and the GI50 (UACC-62) was > 100 µM (inactive). The GI50 (UO-31) was > 100 µM (inactive).
